Data as given in the NIST ThermoML archive (doi:10.1021/je0604481).

Assay: mn = molality of the nth substance listed, in mol/kg
Details: Liquid; for viscosity: Capillary tube (Ostwald / Ubbelohde) method; for mass density: Constant-volume piezometry

O=S(=O)([O-])[O-].[Mg+2] [magnesium sulfate] + O
Details | mass density [kg/m3] | viscosity [mPa·s]
348.15 K, 100 kPa, m1 = 2.291 | – | 1.503
348.15 K, 101 kPa, m1 = 0.084 | 984.5 | –
348.15 K, 101 kPa, m1 = 0.261 | 1004.83 | –
348.15 K, 101 kPa, m1 = 0.469 | 1028.4 | –
348.15 K, 101 kPa, m1 = 0.841 | 1069.05 | –
348.15 K, 10000 kPa, m1 = 0.437 | – | 0.4948
348.15 K, 10000 kPa, m1 = 2.291 | – | 1.514
348.15 K, 30000 kPa, m1 = 0.437 | – | 0.5024
348.15 K, 30000 kPa, m1 = 2.291 | – | 1.536
348.2 K, 100 kPa, m1 = 1.824 | – | 1.127
348.2 K, 10000 kPa, m1 = 1.824 | – | 1.135
348.2 K, 30000 kPa, m1 = 1.824 | – | 1.151
348.23 K, 2118 kPa, m1 = 2.224 | 1208.2 | –
348.23 K, 8002 kPa, m1 = 2.224 | 1210.4 | –
348.23 K, 14710 kPa, m1 = 2.224 | 1212.2 | –
348.23 K, 25300 kPa, m1 = 2.224 | 1215.7 | –
348.23 K, 30020 kPa, m1 = 2.224 | 1217.1 | –
348.25 K, 100 kPa, m1 = 0.255 | – | 0.4399
348.25 K, 10000 kPa, m1 = 0.255 | – | 0.4432
348.25 K, 30000 kPa, m1 = 0.255 | – | 0.4502
348.32 K, 100 kPa, m1 = 0.085 | – | 0.3976
348.32 K, 10000 kPa, m1 = 0.085 | – | 0.4008
348.32 K, 30000 kPa, m1 = 0.085 | – | 0.4066
348.35 K, 100 kPa, m1 = 2.623 | – | 1.849
348.35 K, 10000 kPa, m1 = 2.623 | – | 1.863
348.35 K, 30000 kPa, m1 = 2.623 | – | 1.889
348.36 K, 100 kPa, m1 = 0.722 | – | 0.5831
348.36 K, 10000 kPa, m1 = 0.722 | – | 0.5875
348.36 K, 30000 kPa, m1 = 0.722 | – | 0.5961
348.75 K, 100 kPa, m1 = 0.923 | – | 0.6495
348.75 K, 10000 kPa, m1 = 0.923 | – | 0.6548
348.75 K, 30000 kPa, m1 = 0.923 | – | 0.6642
358.95 K, 101 kPa, m1 = 2.224 | 1200.88 | –
358.95 K, 101 kPa, m1 = 2.535 | 1228.61 | –
370.1 K, 100 kPa, m1 = 2.291 | – | 1.068
370.1 K, 10000 kPa, m1 = 2.291 | – | 1.078
370.1 K, 30000 kPa, m1 = 2.291 | – | 1.099
370.4 K, 100 kPa, m1 = 0.923 | – | 0.4894
370.4 K, 10000 kPa, m1 = 0.923 | – | 0.4945
370.4 K, 30000 kPa, m1 = 0.923 | – | 0.5035
370.45 K, 100 kPa, m1 = 0.085 | – | 0.3053
370.45 K, 100 kPa, m1 = 0.722 | – | 0.4386
370.45 K, 10000 kPa, m1 = 0.085 | – | 0.3084
370.45 K, 10000 kPa, m1 = 0.722 | – | 0.4433
370.45 K, 30000 kPa, m1 = 0.085 | – | 0.3144
370.45 K, 30000 kPa, m1 = 0.722 | – | 0.4516
370.75 K, 100 kPa, m1 = 2.623 | – | 1.295
370.75 K, 10000 kPa, m1 = 2.623 | – | 1.308
370.75 K, 30000 kPa, m1 = 2.623 | – | 1.333
371.44 K, 100 kPa, m1 = 1.824 | – | 0.804
371.44 K, 10000 kPa, m1 = 1.824 | – | 0.811
371.44 K, 30000 kPa, m1 = 1.824 | – | 0.827
371.9 K, 100 kPa, m1 = 0.437 | – | 0.3654
371.9 K, 10000 kPa, m1 = 0.437 | – | 0.3694
371.9 K, 30000 kPa, m1 = 0.437 | – | 0.3766
372.4 K, 100 kPa, m1 = 0.255 | – | 0.33
372.4 K, 10000 kPa, m1 = 0.255 | – | 0.3336
372.4 K, 30000 kPa, m1 = 0.255 | – | 0.34
373.22 K, 3020 kPa, m1 = 2.535 | 1220.3 | –
373.22 K, 6610 kPa, m1 = 2.535 | 1221.6 | –
373.22 K, 14380 kPa, m1 = 2.535 | 1224.1 | –
373.22 K, 21080 kPa, m1 = 2.535 | 1226.1 | –
373.22 K, 24710 kPa, m1 = 2.535 | 1227.4 | –
373.22 K, 29800 kPa, m1 = 2.535 | 1229 | –
373.24 K, 2275 kPa, m1 = 2.224 | 1192.8 | –
373.24 K, 7355 kPa, m1 = 2.224 | 1194.5 | –
373.24 K, 12870 kPa, m1 = 2.224 | 1196.4 | –
373.24 K, 20420 kPa, m1 = 2.224 | 1198.9 | –
373.24 K, 29820 kPa, m1 = 2.224 | 1201.7 | –
394.16 K, 10000 kPa, m1 = 2.623 | – | 0.963
394.16 K, 30000 kPa, m1 = 2.623 | – | 0.985
396.25 K, 10000 kPa, m1 = 0.923 | – | 0.377
396.25 K, 30000 kPa, m1 = 0.923 | – | 0.3862
397.1 K, 10000 kPa, m1 = 1.824 | – | 0.605
397.1 K, 30000 kPa, m1 = 1.824 | – | 0.619
397.14 K, 10000 kPa, m1 = 0.085 | – | 0.2381
397.14 K, 30000 kPa, m1 = 0.085 | – | 0.2437
398.15 K, 5810 kPa, m1 = 2.535 | 1203.8 | –
398.15 K, 11100 kPa, m1 = 2.535 | 1205.6 | –
398.15 K, 21700 kPa, m1 = 2.535 | 1209 | –
398.15 K, 29400 kPa, m1 = 2.535 | 1211.5 | –
398.19 K, 2452 kPa, m1 = 2.224 | 1175.3 | –
398.19 K, 7355 kPa, m1 = 2.224 | 1177.2 | –
398.19 K, 12080 kPa, m1 = 2.224 | 1178.9 | –
398.19 K, 19850 kPa, m1 = 2.224 | 1181.7 | –
398.19 K, 26220 kPa, m1 = 2.224 | 1183.8 | –
398.7 K, 10000 kPa, m1 = 2.291 | – | 0.774
398.7 K, 30000 kPa, m1 = 2.291 | – | 0.792
398.75 K, 10000 kPa, m1 = 0.437 | – | 0.2834
398.75 K, 30000 kPa, m1 = 0.437 | – | 0.2901
399.24 K, 10000 kPa, m1 = 0.722 | – | 0.3306
399.24 K, 30000 kPa, m1 = 0.722 | – | 0.3384
399.44 K, 10000 kPa, m1 = 0.255 | – | 0.2566
399.44 K, 30000 kPa, m1 = 0.255 | – | 0.2625
422.1 K, 10000 kPa, m1 = 1.824 | – | 0.477
422.1 K, 30000 kPa, m1 = 1.824 | – | 0.49
422.35 K, 10000 kPa, m1 = 0.923 | – | 0.3
422.35 K, 30000 kPa, m1 = 0.923 | – | 0.3081
422.7 K, 10000 kPa, m1 = 0.085 | – | 0.1945
422.7 K, 30000 kPa, m1 = 0.085 | – | 0.1999
423.85 K, 10000 kPa, m1 = 0.255 | – | 0.2113
423.85 K, 30000 kPa, m1 = 0.255 | – | 0.2169
424.13 K, 10000 kPa, m1 = 0.437 | – | 0.23
424.13 K, 30000 kPa, m1 = 0.437 | – | 0.2366
428.16 K, 10000 kPa, m1 = 0.722 | – | 0.2597
428.16 K, 30000 kPa, m1 = 0.722 | – | 0.2673
447.16 K, 10000 kPa, m1 = 0.255 | – | 0.1798
447.16 K, 30000 kPa, m1 = 0.255 | – | 0.1855
447.42 K, 10000 kPa, m1 = 0.437 | – | 0.1966
447.42 K, 30000 kPa, m1 = 0.437 | – | 0.2019
448.24 K, 10000 kPa, m1 = 0.085 | – | 0.1643
448.24 K, 30000 kPa, m1 = 0.085 | – | 0.1694
